Experimental data published in US20070197430A1, “Conjugates And Therapeutic Uses Thereof” (priority 2004, published 2007).
Where “and” joins values, the source holds several entries; their conditions need not be identical. Equal values may be shown once. Peptide text beside a SMILES is read from it.

Tests used:
[1] = Circular dichroism, alpha-helical content of peptides; format: physicochemical; details: 30% aqueous trifluoroethanol
Method: Circular dichroism spectra were obtained using a Jasco Model J-710 spetropolarimeter at 20° C. using the following parameters: path length, 2 mm; step resolution, 0.1 nm; speed, 20 nm/min, accumulation, 4; response, 1 second; bandwidth, 1.0 nm. The peptides were analysed at a concentration of 0.5 mg/mL in 30% aqueous TFE. The alpha-helical content of the peptides were determined by methods described in Yang et al (1986), involving comparisons of spectra with model helical peptides.

Bcl-w ΔC29 = biological target: T1, Bcl-w ΔC29 (Homo sapiens, UniProt Q92843); experiment: Alphascreen GST competition assay with biotinylated Bim BH3-26 peptide; format: binding; details: Example 14, two values given per peptide
T1 sequence (Q92843 1-164 limits assumed): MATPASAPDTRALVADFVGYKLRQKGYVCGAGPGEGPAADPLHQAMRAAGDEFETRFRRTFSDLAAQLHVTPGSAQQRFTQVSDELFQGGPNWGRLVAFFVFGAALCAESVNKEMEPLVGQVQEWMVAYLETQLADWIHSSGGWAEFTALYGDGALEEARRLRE

Bcl-xL ΔC25 [2] = biological target: T2, Bcl-xL ΔC25 (Homo sapiens, UniProt Q07817); experiment: Alphascreen GST competition assay with biotinylated BimBH3 peptide; format: binding; details: Example 14, two values given per peptide
Method: (§1) Using solution competition assays and Alphascreen GST-detection as described below, the constrained peptide of Example 2 (peptide A) was assessed for competition binding to Bcl-2 homologues, Bcl-w ΔC29, Bcl-xL ΔC25 and Mcl-1 ΔC23.
(§2) All the assays were performed using 384-well white plates in a total volume of 20 μL. The assay buffer is 50 mM HEPES, 10 mM DTT, 100 mM NaCl, 0.05% Tween 20, 0.1 mg/mL casein, pH 7.4. The bead buffer is 50 mM Tris, 1% Tween 20, 0.1 mg/mL casein, pH 7.5.
(§3) For the GST-Bcl-wΔC29 protein assay, protein (0.10 nM), acceptor beads (10 μg/mL), 50% assay buffer and 50% bead buffer were incubated together for 30 minutes. At the same time, biotinylated BimBH3 peptide (Biotin-[…]-OH) (3 nM), donor beads (10 μg/mL), 50% assay buffer and 50% bead buffer were incubated to get for 30 minutes. For the competition binding assay, protein acceptor bead solution (10 μL) and the candidate compound, A, L1 or L2, were added into each well and incubated for 30 minutes, then biotinylated BimBH3 peptide donor bead solution (10 μL) was added into each well. The total DMSO concentration in each well was then adjusted to 0.5% to 2%. Plates were covered with aluminium foil and incubated at room temperature for 4 hours before reading in a Packard Fusion™ reader with excitation at 680 nm and emission at 520-620 nm. […]
Target sequence in this assay (Q07817 1-208 limits assumed): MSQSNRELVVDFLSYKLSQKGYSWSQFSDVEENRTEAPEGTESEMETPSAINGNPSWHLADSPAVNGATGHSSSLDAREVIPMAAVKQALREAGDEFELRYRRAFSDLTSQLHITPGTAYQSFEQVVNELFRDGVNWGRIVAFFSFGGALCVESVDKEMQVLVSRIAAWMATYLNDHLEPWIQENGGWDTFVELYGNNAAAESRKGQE

Mcl-1 ΔC23 [3] = experiment: Alphascreen GST competition assay with biotinylated BakBH3 peptide; format: binding; details: Example 14, two values given per peptide
Method: as §1, §2, §3

Bcl-xL ΔC25 [4] = biological target: T2, Bcl-xL ΔC25; experiment: Surface plasmon resonance direct binding (Biacore S51); details: SPR dissociation constant
Source text: (§4) In separate assay experiments, surface plasmon resonance (SPR) experiments using a Biacore S51 Biosensor were used as proof of direct binding of peptide A to Bcl-w ΔC29, Bcl-xL ΔC25 and Mcl-1 ΔC23. This technique also has the advantage of yielding dissociation constants, which are shown below.

Mcl-1 ΔC23 [5] = experiment: as above; details: SPR dissociation constant
Source text: as §4

Bcl-2 ΔC22 = Bcl-2 ΔC22 (Homo sapiens, UniProt P10415); experiment: Competition assay with biotinylated Bim-BH3 peptide; format: binding; details: text says Bcl-2 and Bcl-xL
Source text: Alphascreen (Amplified Luminsecent Proximity Homogenous Assay) is a bead based technology which measures a biological interaction between molecules. The assay consists of two hydrogel coated beads which, when bought into close proximity by a binding interaction, allow a transfer of singlet oxygen from a donor bead to an acceptor bead.
Upon binding a photosensitiser in the donor bead converts ambient oxygen to a more excited singlet state. This singlet oxygen then diffuses across to react with a chemiluminescer in the acceptor bead. Fluorophores within the same bead are activated, resulting in the emission of light.

Chain of Bcl-2 ΔC22 (P10415 1-217 limits assumed): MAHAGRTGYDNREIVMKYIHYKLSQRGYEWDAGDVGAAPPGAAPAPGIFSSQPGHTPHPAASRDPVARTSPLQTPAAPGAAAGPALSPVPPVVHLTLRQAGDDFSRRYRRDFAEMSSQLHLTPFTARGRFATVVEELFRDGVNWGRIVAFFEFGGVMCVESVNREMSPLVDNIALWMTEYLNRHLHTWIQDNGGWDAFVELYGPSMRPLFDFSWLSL

% Helicity [1]	IC50 (Bcl-w ΔC29)	IC50 (Bcl-xL ΔC25 [2])	IC50 (Mcl-1 ΔC23 [3])	Kd (Bcl-xL ΔC25 [4])	Kd (Mcl-1 ΔC23 [5])	affinity over the unconstrained 12-mer, in words (Bcl-2 ΔC22)	SMILES
9%	820 nM and 800 nM	7000 nM and 6300 nM	400 nM and 360 nM	5200 nM	1200 nM	–	CC[C@H](C)[C@H](NC(C)=O)C(=O)N[C@@H](C)C(=O)N[C@@H](CCC(N)=O)C(=O)N[C@@H](CCC(=O)O)C(=O)N[C@@H](CC(C)C)C(=O)N[C@@H](CCCNC(=N)N)C(=O)N[C@@H](CCCNC(=N)N)C(=O)N[C@H](C(=O)NCC(=O)N[C@@H](CC(=O)O)C(=O)N[C@@H](CCC(=O)O)C(=O)N[C@@H](Cc1ccccc1)C(N)=O)[C@@H](C)CC [Peptide L1] (Ac-IAQELRRIGDEF-NH2)
–	120 nM	960 nM and 890 nM	650 nM and 660 nM	370 nM	920 nM	–	CC[C@H](C)[C@H](NC(C)=O)C(=O)N[C@@H](C)C(=O)N[C@@H](CCC(N)=O)C(=O)N[C@@H](CCC(N)=O)C(=O)N[C@@H](CC(C)C)C(=O)N[C@@H](CCCNC(=N)N)C(=O)N[C@@H](CCCNC(=N)N)C(=O)N[C@H](C(=O)NCC(=O)N[C@@H](CC(=O)O)C(=O)N[C@@H](CCC(N)=O)C(=O)N[C@@H](Cc1ccccc1)C(N)=O)[C@@H](C)CC [Peptide L2] (Ac-IAQQLRRIGDQF-NH2)
39%	–	–	–	–	–	outstanding increases in affinity	CC[C@H](C)[C@H](NC(C)=O)C(=O)N[C@@H](C)C(=O)N[C@@H](CCC(N)=O)C(=O)N[C@H]1CCC(=O)NCCCCCCNC(=O)CC[C@@H](C(=O)N[C@@H](Cc2ccccc2)C(N)=O)NC(=O)[C@H](CC(=O)O)NC(=O)CNC(=O)[C@H]([C@@H](C)CC)NC(=O)[C@H](CCCNC(=N)N)NC(=O)[C@H](CCCNC(=N)N)NC(=O)[C@H](CC(C)C)NC1=O [C, Ac-IAQ-E-LRRIGD-E-F-NH2] (HELM PEPTIDE1{[ac].I.A.Q.E.L.R.R.I.G.D.E.F.[am]}|CHEM1{[C(CCCN[*:2])CCN[*:1]]}$PEPTIDE1,CHEM1,5:R3-1:R1|PEPTIDE1,CHEM1,12:R3-1:R2$$$V2.0)
